These results are taken from ChEMBL document CHEMBL5365532, “Discovery of Triazinone Derivatives as Novel, Specific, and Direct NLRP3 Inflammasome Inhibitors for the Treatment of DSS-Induced Ulcerative Colitis” (J Med Chem, 2023).

The structures appear in SMILES notation. The source made the active and inactive calls. No cut-off for these calls is given here.

The first data set deals with Mus musculus. Nature of the data set: Antiinflammatory activity against DSS-induced ulcerative colitis C57BL/6 mouse model assessed as decrease in disease activity index at 30 mg/kg, ip fed with DSS for 6 days followed by administration with compound for 5 days. The note with it: time 5.0 day. Type of data set: functional, organism-based.
On to `CC(C)c1nn(CC(=O)NC2CCOCC2)c(=O)c2cc3sc(Cl)cc3n12`, for which the result was Active.

Another data set relates to THP-1. Nature of the data set: Effect on pro-IL-1beta protein expression in PMA-differentiated human THP-1 cells at 0.5 uM pretreated with compound for 40 mins followed by LPS challenge for 3 hrs by western blot analysis. Type of data set: functional, cell-based. The note with it: time 220.0 min.
Take `CC(C)(O)c1coc(S(=O)(=O)NC(=O)Nc2c3c(cc4c2CCC4)CCC3)c1`: the outcome was inactive.

In a further data set the test system is THP-1. Nature of the data set: Effect on NLRP3 protein expression in PMA-differentiated human THP-1 cells at 0.5 uM pretreated with compound for 40 mins followed by LPS challenge for 3 hrs by western blot analysis. The class given is functional, cell-based. The conditions noted are these: time 220.0 min.
`CC(C)(O)c1coc(S(=O)(=O)NC(=O)Nc2c3c(cc4c2CCC4)CCC3)c1`: the outcome was inactive.

Tested on in another data set: not listed separately
Nature of the data set: Metabolic stability in human liver microsomes. Type of data set: ADME, Microsome.
Details: not given
In turn, `CC(C)c1nn(CC(=O)NC2CCOCC2)c(=O)c2cc3sc(Cl)cc3n12` registered a half-life of 18.7 min. `CC(C)c1nn(Cc2nnc(-c3ccc(F)nc3F)o2)c(=O)c2cc3sc(Cl)cc3n12`: the half-life is 8.86 min. For the compound `Cc1ccc(-c2nnc(Cn3nc(C(C)C)n4c(cc5sc(Cl)cc54)c3=O)o2)c(Cl)n1`, the half-life stood at 15.2 min. Still for that read-out and setting: for `CC(C)c1nn([C@H](C)c2nnc(-c3ccc(C(F)(F)F)nc3Cl)o2)c(=O)c2cc3sc(Cl)cc3n12` the value was 59.2 min; for `[2H]C([2H])(c1nnc(-c2ccc(C(F)(F)F)nc2Cl)o1)n1nc(C(C)C)n2c(cc3sc(Cl)cc32)c1=O`, 25.1 min. Same read-out and setting: as for `CC(C)c1nn(Cc2nnc(-c3cc(F)cnc3Cl)o2)c(=O)c2cc3sc(Cl)cc3n12`, the figure is 7.66 min.

The subject of another data set is Mus musculus. Nature of the data set: Antiinflammatory activity against DSS-induced ulcerative colitis C57BL/6 mouse model assessed as decrease in colon length shortening at 30 mg/kg, ip fed with DSS for 6 days followed by administration with compound for 5 days and measured on day 11. The conditions noted are these: time 5.0 day. Type of data set: functional, organism-based.
Turning to `CC(C)c1nn(CC(=O)NC2CCOCC2)c(=O)c2cc3sc(Cl)cc3n12`, the result was Active.

The target of the next data set is NACHT, LRR and PYD domains-containing protein 3 (Homo sapiens, UniProt Q96P20). The data set can be described thus: Inhibition of NLRP3 inflammasome in PMA-differentiated human THP-1 cells assessed as inhibition of LPS/nigericin-induced IL-1 beta secretion pretreated with LPS for 3 hrs followed by incubation with compound for 40 mins and later stimulated with nigericin for 35 mins by ELISA. Type of data set: cell-based.
Sequence of NACHT, LRR and PYD domains-containing protein 3 (Q96P20 whole entry, the tested form may be a part): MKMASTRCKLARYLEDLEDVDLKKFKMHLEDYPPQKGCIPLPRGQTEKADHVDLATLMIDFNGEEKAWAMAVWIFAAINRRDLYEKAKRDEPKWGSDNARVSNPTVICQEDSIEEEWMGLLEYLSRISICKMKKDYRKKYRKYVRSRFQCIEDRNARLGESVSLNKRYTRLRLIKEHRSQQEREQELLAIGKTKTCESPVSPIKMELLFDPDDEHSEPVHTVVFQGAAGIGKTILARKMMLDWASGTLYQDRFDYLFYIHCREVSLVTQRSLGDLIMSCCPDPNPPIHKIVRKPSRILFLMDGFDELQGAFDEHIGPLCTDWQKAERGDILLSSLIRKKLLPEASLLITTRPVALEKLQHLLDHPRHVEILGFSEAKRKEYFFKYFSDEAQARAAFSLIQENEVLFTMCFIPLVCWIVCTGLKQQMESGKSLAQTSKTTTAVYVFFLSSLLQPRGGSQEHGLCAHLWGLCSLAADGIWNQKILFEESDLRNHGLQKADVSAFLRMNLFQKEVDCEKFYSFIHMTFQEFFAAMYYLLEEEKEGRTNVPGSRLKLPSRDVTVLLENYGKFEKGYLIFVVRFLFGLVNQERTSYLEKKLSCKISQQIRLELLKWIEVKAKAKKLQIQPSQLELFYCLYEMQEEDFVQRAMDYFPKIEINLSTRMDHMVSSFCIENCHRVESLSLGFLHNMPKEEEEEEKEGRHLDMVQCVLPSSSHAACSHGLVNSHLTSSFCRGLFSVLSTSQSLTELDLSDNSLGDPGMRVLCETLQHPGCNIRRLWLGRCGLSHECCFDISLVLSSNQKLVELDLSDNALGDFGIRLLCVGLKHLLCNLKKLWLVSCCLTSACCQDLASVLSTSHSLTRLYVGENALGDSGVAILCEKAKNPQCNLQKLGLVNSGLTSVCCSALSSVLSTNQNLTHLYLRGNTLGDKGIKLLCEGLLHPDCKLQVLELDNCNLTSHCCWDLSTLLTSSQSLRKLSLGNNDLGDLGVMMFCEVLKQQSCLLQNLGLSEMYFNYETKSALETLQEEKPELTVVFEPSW
Details: not given
Take `CC(C)c1nn(CC(=O)NC2CCOCC2)c(=O)c2cc(NC3COC3)cn12`: the IC50 was > 10 µM.

As to `CC(C)c1nn(Cc2nnc(-c3cccc(C#N)c3)o2)c(=O)c2cc3sc(Cl)cc3n12`, the IC50 was found to be 0.38 µM.

Consider `CC(C)c1nn(Cc2nnc(-c3cnccn3)o2)c(=O)c2cc3sc(Cl)cc3n12`, for which the IC50 amounted to 2.24 µM. Still for that read-out and setting: for `CC(C)c1nn([C@@H](C)c2nnc(-c3ccc(C(F)(F)F)nc3Cl)o2)c(=O)c2cc3sc(Cl)cc3n12` the value was > 10 µM; for `CC(C)c1nn(Cc2nnc(-c3cc(C(F)(F)F)cnc3Cl)o2)c(=O)c2cc3sc(Cl)cc3n12`, 1.77 µM; for `COc1cccc(-c2nnc(Cn3nc(C(C)C)n4c(cc5sc(Cl)cc54)c3=O)o2)c1`, > 10 µM. Same read-out and setting: for `CC(C)c1nn(CC(=O)NC2CCOCC2)c(=O)c2ccc(-c3ccc(Cl)s3)n12` the value was > 10 µM.

Regarding `CC(C)c1nn(Cc2nnc(C3CCOCC3)o2)c(=O)c2cc3sccc3n12`, the half-inhibitory concentration (IC50) is > 10 µM. Same read-out and setting: for `CC(C)c1nn(Cc2nnc(-c3ccncn3)o2)c(=O)c2cc3sc(Cl)cc3n12` the value was 1.24 µM. The same measure, in the same setting: for `CC(C)c1nn([C@H](C)c2nnc(-c3ccc(C(F)(F)F)nc3Cl)o2)c(=O)c2cc3sc(Cl)cc3n12` the value was > 10 µM. Still for that read-out and setting: as for `CC(C)c1nn(CC(=O)NC2CCOCC2)c(=O)c2cc3ccccc3n12`, the figure is > 10 µM.

Consider `CC(C)c1nn(Cc2nnc(C3CCOCC3)o2)c(=O)c2cc3sc(Cl)cc3n12`, for which the concentration for half-maximal inhibition (IC50) stood at 2.41 µM. With `CC(C)c1nn(CC(=O)NC2CCOCC2)c(=O)c2ccc(-c3ccsc3)n12`, the IC50 was > 10 µM. Same read-out and setting: for `Cc1cccc(-c2nnc(Cn3nc(C(C)C)n4c(cc5sc(Cl)cc54)c3=O)o2)c1` the value was > 10 µM. On to `CC(C)c1nn(Cc2nnc(C3CCCCC3)o2)c(=O)c2cc3sc(Cl)cc3n12`, for which the IC50 was determined as 1.9 µM. Same read-out and setting: for `O=C(CNC(=O)c1cc2sccc2[nH]1)NC1CCOCC1` the value was > 10 µM; for `O=C(CN1CCn2c(cc3sccc32)C1=O)NC1CCOCC1`, > 10 µM.

For the compound `CC(C)c1nn(CC(=O)NC2CCOCC2)c(=O)c2cc(Nc3ccccc3)cn12`, the IC50 is > 10 µM. The same measure, in the same setting: for `CC(C)c1nn(Cc2nnc(-c3cccnc3)o2)c(=O)c2cc3sc(Cl)cc3n12` the value was 1.89 µM; for `CC(C)c1nn(CC(=O)NC2CCOCC2)c(=O)c2cc3cc(Cl)ccc3n12`, > 10 µM; for `CC(C)c1nn(CC(=O)NC2CCOCC2)c(=O)c2cccn12`, > 10 µM. With `CC(C)c1nn(Cc2nnc(-c3cccnc3)[nH]2)c(=O)c2cc3sc(Cl)cc3n12`, the half-maximal inhibitory concentration (IC50) was > 10 µM.
